According to US12168781B2, “Production method for T cells or NK cells, medium for culturing T cells or NK cells, method for culturing T cells or NK cells, method for maintaining undifferentiated state of undifferentiated T cells, and growth-accelerating agent for T cells or NK cells” (KIRIN HOLDINGS KABUSHIKI KAISHA, priority 2018, dated 2024):

Assays:
T-iPS-T cells [1] = test: Number of viable T-iPS-T cells under feeder-free culture (CD3/CD28 Dynabeads, Cell Count Reagent SF, absorbance 450 nm/650 nm); type: cell-based, human; details: T-iPS-T cells after 1st expansion, 6 days, DMSO control 0.225 ± 0.017
Method: T-iPS-T cells (1,500 cells/well) after 1st expansion were seeded and cultured in RPMI-1640 medium (SIGMA, R8758) supplemented with 15% FBS (CORNING, 35-076-CV, 35076104R), 1% PSG (SIGMA, G1146), PAA (50 μg/mL, Nacalai Tesque, 03420-52), ITS-G, IL-7 (5 ng/mL), IL-12 (50 ng/mL), IL-15 (5 ng/mL), IL-18 (50 ng/mL), IL-21 (20 ng/mL), and z-VAD-fmk (10 μM). The cells were stimulated by adding CD3/CD28 Dynabeads (Gibco, 11131D, the “Dynabeads” is a registered trademark) (4,500 beads/well) thereto, and 1,080 compounds [MedChemExpress, Apoptosis Compound Library (HY-L003), Cell Cycle/DNA Damage Compound Library (HY-L004), JAK/STAT Compound Library (HY-L008), MAPK Compound Library (HY-L010), NF-kappaB Compound Library (HY-L014), PI3K/Akt/mTOR Compound Library (HY-L015), and Wnt/Hedgehog/Notch Compound Library (HY-L020)] were added thereto (one type per well) at a final concentration of 1 μM, and then, the cells were cultured at 37° C. under 5% CO2.
DMSO (0.1%) that is a solvent for the compound was used as a control. After 6 days, the number of viable cells was measured using Cell Count Reagent SF (Nacalai Tesque, 07553) and a microplate reader (SoftMax Pro 5.X, Molecular Devices, 450 nm/650 nm).
A calibration curve for cell number was set as follows. When measuring the number of viable cells, 12-point serial dilution was performed for the same cells as those used in the screening, and the cells were seeded (0 to 1,536,000 cells/well) in RPMI-1640 medium supplemented with 15% FBS, 1% PSG, PAA, ITS-G, IL-7 (5 ng/mL) and IL-15 (5 ng/mL). The number of viable cells was measured together with the screening samples, and a calibration curve for WST-8 assay was formed.
In order to further evaluate the results obtained in Example 4, reproducibility was evaluated. As a method therefor, the same method as in Example 4 was used to carry out culturing and evaluation. As compounds, 20 compounds were selected and used among the compounds used in Example 4 including berbamine, and DMSO (0.1%) that is a solvent for the compound was used as a control. Note that in a statistical analysis, a Student's t-test was used (*: p<0.05).
The effect of a berbamine derivative on the proliferation of T cells was verified. As a method therefor, T-iPS-T cells after 1st expansion were cultured in the same manner as in Example 4, and berbamine (BBM) or each of 13 types of derivatives [BBMD1 to 13, Hebei Sundia MediTech Company Ltd.] was added thereto (one type per well) at a final concentration of 0.1 nM, 1 nM, 10 nM, 100 nM, or 1 μM, and then, the cells were cultured at 37° C. under 5% CO2. DMSO (0.1%) that is a solvent for the compound was used as a control.
After culturing for 6 days, the number of viable cells was measured using Cell Count Reagent SF (Nacalai Tesque, 07553) and a microplate reader (SoftMax Pro 5. X, Molecular Devices, 450 nm/650 nm), and the OD value was used as data. Note that in a statistical analysis, a Student's t-test was used (*: p<0.05). 1.

T-iPS-T cells [2] = test: Feeder-free culture of T-iPS-T cells, FACS count of PI-negative cells and CD45RA(+)CCR7(+) cells; type: cell-based, human; details: 6 days; for Number of CD45RA+CCR7+ cells: DMSO 3891 ± 3170; for Cell number: DMSO 16096 ± 10785
Method: After washing, the cells were resuspended in the staining solution containing PI. Half the amount was analyzed using a BD LSR Fortessa cytometer (BD Bioscience) equipped with HTS, and all cells were recorded.
The concentration dependence of the bisbenzylisoquinoline alkaloid represented by the formula (X-1) or the formula (X-2) in feeder-free proliferation of T-iPS-T cells was examined. T-iPS-T cells were cultured using alpha-MEM medium supplemented with 15% FBS, 1% PSG, PAA (50 μg/mL), ITS-G, IL-7 (5 ng/mL), IL-12 (50 ng/mL), IL-15 (5 ng/mL), IL-18 (50 ng/mL), IL-21 (20 ng/mL), and z-VAD-fmk (10 μM).
The effect on culturing of T-iPS-T cells was evaluated by comparing a known compound that contributes to the proliferation of memory T cells with berbamine. […] DMSO (0.1%) that is a solvent for the compound was used as a control.
The number of events of PI-negative cells and the number of events of CD45RA(+)CCR7(+) cells in the PI-negative cells, which were analyzed by FlowJo 9, were used as data. Note that in a statistical analysis, a Student's t-test was used (*: p<0.05).
The effect of the combined use of berbamine with a MAPK cascade inhibitor on the proliferation of memory T cells was examined. […] The final concentration of each compound was set to 1 μM. DMSO (0.1%) that is a solvent for the compound was used as a control.
The number of events (#Cells) of CD45RA(+)CCR7(+) cells in the PI-negative cell population analyzed by FlowJo 9 was plotted and graphed. Note that in a statistical analysis, a Student's t-test was used (*: p<0.05, **P<0.01, ***P<0.001, ****P<0.0001).

SMILES | number of viable cells (OD value) (T-iPS-T cells [1]; 0.1 nM) | number of viable cells (OD value) (T-iPS-T cells [1]; 1 nM) | number of viable cells (OD value) (T-iPS-T cells [1]; 10 nM) | number of viable cells (OD value) (T-iPS-T cells [1]; 100 nM) | number of viable cells (OD value) (T-iPS-T cells [1]; 1 μM) | Number of CD45RA+CCR7+ cells (T-iPS-T cells [2]; 1 nM) | Cell number (T-iPS-T cells [2]; 1 nM) | Number of CD45RA+CCR7+ cells (T-iPS-T cells [2]; 3 nM) | Cell number (T-iPS-T cells [2]; 3 nM) | Number of CD45RA+CCR7+ cells (T-iPS-T cells [2]; 10 nM) | Cell number (T-iPS-T cells [2]; 10 nM) | Number of CD45RA+CCR7+ cells (T-iPS-T cells [2]; 30 nM) | Cell number (T-iPS-T cells [2]; 30 nM) | Number of CD45RA+CCR7+ cells (T-iPS-T cells [2]; 100 nM) | Cell number (T-iPS-T cells [2]; 100 nM) | Number of CD45RA+CCR7+ cells (T-iPS-T cells [2]; 300 nM) | Cell number (T-iPS-T cells [2]; 300 nM) | Number of CD45RA+CCR7+ cells (T-iPS-T cells [2]; 1 μM) | Cell number (T-iPS-T cells [2]; 1 μM) | Number of CD45RA+CCR7+ cells (T-iPS-T cells [2]; 3 μM) | also measured
COc1ccc(C(=O)NCCCOc2ccc3cc2Oc2ccc(cc2)CC2c4cc(c(OC)cc4CCN2C)Oc2c(OC)c(OC)cc4c2C(C3)N(C)CC4)cc1 (centres unmarked) [BBMD10] | 0.255 ± 0.013 | 0.274 ± 0.007 ** | 0.295 ± 0.023 * | 0.494 ± 0.038 *** | 0.301 ± 0.008 ** | – | – | – | – | – | – | – | – | – | – | – | – | – | – | – | –
COc1cc2c3cc1Oc1c(OC)c(OC)cc4c1C(Cc1ccc(OCCCNC(=O)c5ccc(-c6ccc(C=O)cc6)cc5)c(c1)Oc1ccc(cc1)CC3N(C)CC2)N(C)CC4 (centres unmarked) [BBMD11] | 0.270 ± 0.099 | 0.242 ± 0.046 | 0.300 ± 0.081^ | 0.425 ± 0.079 * | 0.239 ± 0.076 | – | – | – | – | – | – | – | – | – | – | – | – | – | – | – | –
COc1cc2c3cc1Oc1c(OC)c(OC)cc4c1C(Cc1ccc(OCCCNC(=O)c5cscn5)c(c1)Oc1ccc(cc1)CC3N(C)CC2)N(C)CC4 (centres unmarked) [BBMD12] | 0.185 ± 0.072 | 0.234 ± 0.027 | 0.235 ± 0.010^ | 0.257 ± 0.008 * | 0.561 ± 0.035 *** | – | – | – | – | – | – | – | – | – | – | – | – | – | – | – | –
COc1cc2c3cc1Oc1c(OC)c(OC)cc4c1C(Cc1ccc(OC(=O)c5ccccc5)c(c1)Oc1ccc(cc1)CC3N(C)CC2)N(C)CC4 (centres unmarked) [BBMD13] | 0.253 ± 0.022 | 0.292 ± 0.001 ** | 0.260 ± 0.011 * | 0.412 ± 0.085 * | 0.288 ± 0.041 | – | – | – | – | – | – | – | – | – | – | – | – | – | – | – | –
COc1ccc2cc1Oc1ccc(cc1)C[C@H]1c3c(cc4c(c3Oc3cc5c(cc3OC)CCN(C)[C@@H]5C2)OCO4)CCN1C [Cepharanthine, cepharanthine] | – | – | – | – | – | 5429 ± 3207 ** | 18312 ± 7127 | 5256 ± 3168 | 19212 ± 8368 | 5632 ± 3014 *** | 20590 ± 9995 | 7764 ± 3495 ** | 29158 ± 12980 * | 9486 ± 4802 * | 41856 ± 9113 ** | 13060 ± 7584 * | 52923 ± 5313 ** | 10741 ± 5793 | 48800 ± 17971 * | 9245 ± 4682 * | Cell number (T-iPS-T cells [2]; 3 μM): 31965 ± 19694; Number of CD45RA+CCR7+ cells (T-iPS-T cells [2]; 10 μM): 1447 ± 2117; Cell number (T-iPS-T cells [2]; 10 μM): 4884 ± 8378
COc1cc2c3cc1Oc1c(OC)c(OC)cc4c1[C@@H](Cc1ccc(OC(=O)c5ccc([N+](=O)[O-])cc5)c(c1)Oc1ccc(cc1)C[C@@H]3N(C)CC2)N(C)CC4 [E6 Berbamine, E6-berbamine] | – | – | – | – | – | 6440 ± 4121 * | 20795 ± 11427 ** | 6205 ± 4137 * | 19420 ± 9845 ** | 6015 ± 4682 | 22404 ± 11035 *** | 7410 ± 4691 * | 28009 ± 13327 * | 10775 ± 5788 * | 44562 ± 11985 ** | 12148 ± 6414 * | 55682 ± 3508 ** | 5075 ± 3582 | 26964 ± 23925 | 2080 ± 3520 | Cell number (T-iPS-T cells [2]; 3 μM): 16367 ± 26569; Number of CD45RA+CCR7+ cells (T-iPS-T cells [2]; 10 μM): 1791 ± 3538; Cell number (T-iPS-T cells [2]; 10 μM): 8441 ± 16764
